Measurements as given in PMC11505200, “Exploring the 3,5-Dibromo-4,6-dimethoxychalcones and Their Flavone Derivatives as Dual α-Glucosidase and α-Amylase Inhibitors with Antioxidant and Anticancer Potential” (Antioxidants, 2024).
Where two headings read alike, the source gives them in different places.

How the values were obtained:
[1] = biological target: T1, α-glucosidase type 1 from Saccharomyces cerevisiae (Saccharomyces cerevisiae, UniProt P53341); test: biochemical; type: biochemical; settings: for selectivity index (SI = IC50(α-glucosidase)/IC50(α-amylase)): ratio of α-glucosidase to α-amylase IC50
T1 construct: purchased Merck Life Science (Pty) Ltd. (Sigma-Aldrich) G5003
T1 sequence (P53341 whole entry): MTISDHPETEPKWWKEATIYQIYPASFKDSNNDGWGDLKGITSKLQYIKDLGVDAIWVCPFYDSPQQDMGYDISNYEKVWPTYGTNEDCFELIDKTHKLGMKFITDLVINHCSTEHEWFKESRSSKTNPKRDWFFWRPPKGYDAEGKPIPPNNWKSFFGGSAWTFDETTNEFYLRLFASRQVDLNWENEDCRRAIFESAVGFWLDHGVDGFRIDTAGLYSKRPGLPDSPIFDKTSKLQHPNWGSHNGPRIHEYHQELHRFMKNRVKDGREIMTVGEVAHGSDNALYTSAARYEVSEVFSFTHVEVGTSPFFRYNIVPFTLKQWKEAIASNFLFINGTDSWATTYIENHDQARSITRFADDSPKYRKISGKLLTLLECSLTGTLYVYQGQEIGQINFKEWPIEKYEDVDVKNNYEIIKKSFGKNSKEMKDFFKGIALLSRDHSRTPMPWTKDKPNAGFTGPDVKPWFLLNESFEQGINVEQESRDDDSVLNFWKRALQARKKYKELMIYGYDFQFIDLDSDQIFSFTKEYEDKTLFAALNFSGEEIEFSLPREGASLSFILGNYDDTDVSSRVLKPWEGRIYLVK
Procedure: The assays and analyses were performed in triplicates following a method described in a previous study. […] A solution of α-glucosidase type 1 from Saccharomyces cerevisiae (0.48 u/mL, 17 μL), 100 mM phosphate buffer (pH 6.8; 50 μL) and the test sample in DMSO (17 μL) were incubated at 37 °C for 10 min. This pre-incubation was followed by addition of 2 mM p-nitrophenyl-α-D-glucopyranoside (PNP-G, 17 μL) to each of the wells containing reaction mixtures to initiate the reaction. The plate was then incubated for 30 min. at 37 °C. The five absorbance readings were recorded at a wavelength of 405 nm for each triplicate run using a Varioskan flash microplate spectrophotometer (Thermo Scientific, Waltham, MA, USA). The average values obtained from the readings were used to determine the IC50 and standard deviation values. The values were calculated by the nonlinear regression analysis using the Graph Pad Prism version 8.0.1 software (San Diego, CA, USA) and expressed as the mean SD of three distinct experiments.

[2] = Nitric oxide (NO) free radical scavenging assay (Griess reagent); settings: mean ± SD; 1-50 μM
Procedure: Different concentrations (1, 5, 10, 25 and 50 μM) of the test compounds and quercetin (reference standard) were prepared in DMSO. A mixture of the compound (5 μL), 10 mM sodium nitroprusside (20 μL) and the phosphate buffer (5 μL) were incubated at 25 °C in a 96-well plate. The plate was incubated for 2.5 h at 25 °C followed by the addition of the Griess reagent (1.00 g of sulphanilic acid + 0.10 g naphthylethylene diamine dihydrochloride, 20 μL). The mixtures were allowed to stand for 30 min. […] The IC50 and SD values were calculated using the Graph Pad Prism software.

A549 cells = test: Cytotoxicity, CellTiter-Blue cell viability assay; type: cell-based, human; settings: 24 h treatment, 1-100 μM
Procedure: (§1) The cells were maintained in Dulbecco’s Modified Eagle’s Medium (DMEM, Gibco, Carlsbad, CA, USA) supplemented with 10% fetal bovine serum (FBS) and 1% penicillin/streptomycin in culture flasks and incubated at 37 °C in 5% CO2. When the cells reached 85% confluency, they were detached using 2% trypsin. The cell count was performed using a hand-held automated cell counter (Scapter 3.0™, Merck, Burlington, MA, USA) and then seeded at 1 × 10^5 cells/well. The well-plates were incubated overnight to allow cell attachment. After 24 h, treatments were administered with different concentrations (1, 5, 10, 25, 50 and 100 μM) of the test compounds and the positive controls (quercetin and nintedanib). The mixtures were incubated for another 24 h and then 20 μL of the CellTiter-Blue (Cytek Biosciences, San Diago, CA, USA) solution (5 mg/mL) was added to all the wells. Fluorescence was measured at 560 nm excitation/590 nm emission using an Elisa microplate reader (ThermoFisher Scientific, Vario SkanFlash, Vantaa, Finland). The cell viability of the triplicate results was calculated using the GraphPad Prism software (Version 8, GraphPad Software Inc., San Diego, CA, USA) to fit the nonlinear regression dose–response curves to obtain the IC50 and standard deviation values.

MCF-7 cells = test: Cytotoxicity, CellTiter-Blue cell viability assay; type: cell-based, human; settings: 24 h treatment, 1-100 μM
Procedure: as §1

α-amylase = biological target: T2, α-amylase (Homo sapiens, UniProt P04746); test: In vitro α-amylase inhibitory assay (α-Amylase Inhibitor Screening Kit); type: biochemical; settings: mean ± SD, triplicate; 1-50 μM
T2 construct: purchased Abcam ab283391
T2 sequence (P04746 16-511): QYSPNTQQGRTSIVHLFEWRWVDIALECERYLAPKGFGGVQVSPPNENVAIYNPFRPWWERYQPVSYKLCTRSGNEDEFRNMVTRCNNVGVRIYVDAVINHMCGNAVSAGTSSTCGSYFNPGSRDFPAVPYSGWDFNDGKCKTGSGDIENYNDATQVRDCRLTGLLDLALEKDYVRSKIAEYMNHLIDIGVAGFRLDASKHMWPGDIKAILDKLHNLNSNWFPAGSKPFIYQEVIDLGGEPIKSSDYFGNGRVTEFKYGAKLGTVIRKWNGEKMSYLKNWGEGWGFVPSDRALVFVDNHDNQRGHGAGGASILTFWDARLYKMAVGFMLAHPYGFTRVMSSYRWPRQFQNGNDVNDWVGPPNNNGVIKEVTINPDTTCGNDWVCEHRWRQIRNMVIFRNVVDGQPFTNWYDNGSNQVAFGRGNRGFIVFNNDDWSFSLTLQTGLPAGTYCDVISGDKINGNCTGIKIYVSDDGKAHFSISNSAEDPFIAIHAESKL
Procedure: The mixtures were incubated at 37 °C for 10 min. and the substrate prepared in the same fashion as the enzyme was added to the mixtures to initiate the reaction. The plate was then incubated at RT for 25 min. in the dark. Five different absorbance readings were recorded for each triplicate run at a wavelength of 405 nm using a Varioskan flash microplate spectrophotometer (Thermo Scientific, Waltham, MA, USA). The IC50 and SD values were calculated using the Graph Pad Prism software.

Vero cells = test: Cytotoxicity, CellTiter-Blue cell viability assay; type: cell-based, African green monkey (Cercopithecus aethiops); settings: 24 h treatment, 1-100 μM
Procedure: as §1

[3] = Metal ion chelation assay (UV-Vis spectrophotometry); type: physicochemical; settings: 60 μM in methanol with CuCl2, RT
Procedure: A solution of the test compound in methanol alone (60 μM, final concentration) or in the presence of CuCl2 or ZnCl2 was stirred at RT for 30 min. The absorption spectra were recorded at RT at wavelengths ranging from 200 to 600 nm using a Shimadzu UV/Vis spectrometer, model: UV-1800 240V (Shimadzu Europa GmbH, Albert-Han Strasse 6-10, 47269 Duisburg, Germany).

[4] = mean ± SD, triplicate, 1-50 μM, read-out: IC50 α-Glucosidase
[5] = Chlorocebus sabaeus, Vero, 24 h

SMILES | IC50 [1, 4] | IC50 [2] | melting point | IC50 [1] | IC50 (A549 cells; Homo sapiens, A549, 24 h) | IC50 (MCF-7 cells; Homo sapiens, MCF7, 24 h) | IC50 (α-amylase) | IC50 (Vero cells; [5]) | also measured
COc1ccc(-c2cc(=O)c3c(OC)c(Br)c(OC)c(Br)c3o2)cc1 [3d, 6,8-Dibromo-5,7-dimethoxy-2-(4-methoxyphenyl)-4H-chromen-4-one] | 15.2 ± 0.002 µM | 5.3 ± 0.005 µM | 233 to 236 °C |  |  |  |  |  | 
COc1c(Br)c(O)c(C(=O)/C=C/c2ccc(C)cc2)c(OC)c1Br [2e, (E)-1-(3,5-Dibromo-2-hydroxy-4,6-dimethoxyphenyl)-3-(p-tolyl)prop-2-en-1-one] |  |  | 151 to 152 °C | 27.4 ± 0.02 µM |  |  |  |  | 
COc1c(Br)c(O)c(C(=O)/C=C/c2ccccc2)c(OC)c1Br [2a, (E)-1-(3,5-Dibromo-2-hydroxy-4,6-dimethoxyphenyl)-3-phenylprop-2-en-1-one] |  | 11 ± 0.01 µM | 106 to 108 °C | 14.5 ± 0.01 µM | 7.4 ± 0.67 µM | 4.12 ± 0.55 µM | 7.3 ± 0.11 µM | 6.04 ± 0.54 µM | selectivity index (SI = IC50(α-glucosidase)/IC50(α-amylase)) [1]: 1.99
COc1c(Br)c(O)c(C(=O)/C=C/c2ccc(F)cc2)c(OC)c1Br [2b, (E)-1-(3,5-Dibromo-2-hydroxy-4,6-dimethoxyphenyl)-3-(4-fluorophenyl)prop-2-en-1-one] | 7.3 ± 0.004 µM | 6.5 ± 0.005 µM | 132 to 134 °C |  | 18.7 ± 0.89 µM | 12.1 ± 0.72 µM | 6.5 ± 0.07 µM | 25 ± 1.09 µM | selectivity index (SI = IC50(α-glucosidase)/IC50(α-amylase)) [1]: 1.12
COc1c(Br)c(OC)c2c(=O)cc(-c3ccc(C(C)C)cc3)oc2c1Br [3f, 6,8-Dibromo-5,7-dimethoxy-2-(4-isopropylphenyl)-4H-chromen-4-one] | 5.6 ± 0.006 µM | 12.1 ± 0.07 µM | 165 to 167 °C |  | 16.1 ± 1.15 µM | 10.7 ± 1.02 µM | 28 ± 0.06 µM | 11.7 ± 1.02 µM | selectivity index (SI = IC50(α-glucosidase)/IC50(α-amylase)) [1]: 0.2
COc1c(Br)c(OC)c2c(=O)cc(-c3ccc(Cl)cc3)oc2c1Br [3c, 6,8-Dibromo-2-(4-chlorophenyl)-5,7-dimethoxy-4H-chromen-4-ONE] | 0.8 ± 0.002 µM | 4.7 ± 0.02 µM | 280 to 283 °C |  |  | 6.96 ± 0.66 µM |  |  | IC50 (MCF-7 cells): 5.1 ± 0.61 µM; coordination of Cu^2+ (change of UV-Vis maxima) [3]: some coordination of 3c to the copper ion
COc1c(Br)c(O)c(C(=O)/C=C/c2ccc(C(C)C)cc2)c(OC)c1Br [2f, (E)-1-(3,5-Dibromo-2-hydroxy-4,6-dimethoxyphenyl)-3-(4-isopropylphenyl)prop-2-en-1-one] |  | 17.4 ± 0.015 µM | 128 to 130 °C | 23.6 ± 0.1 µM |  |  |  |  | 
COc1ccc(/C=C/C(=O)c2c(O)c(Br)c(OC)c(Br)c2OC)cc1 [2d, (E)-1-(3,5-Dibromo-2-hydroxy-4,6-dimethoxyphenyl)-3-(4-methoxyphenyl)prop-2-en-1-one] |  | 9.5 ± 0.004 µM | 155 to 158 °C | 16.3 ± 0.02 µM |  |  |  |  | 
COC(=O)c1ccc2c(c1)NC(=O)/C2=C(\Nc1ccc(N(C)C(=O)CN2CCN(C)CC2)cc1)c1ccccc1 [Nintedanib, reference compound] |  |  |  |  | 0.74 ± 0.15 µM | 0.53 ± 0.11 µM |  | 0.89 ± 0.18 µM | 
COc1c(Br)c(OC)c2c(=O)cc(-c3ccc(F)cc3)oc2c1Br [3b, 6,8-Dibromo-2-(4-fluorophenyl)-5,7-dimethoxy-4H-chromen-4-one] | 19.5 ± 0.005 µM | 5.4 ± 0.002 µM | 288 to 289 °C |  |  |  |  |  | 
COc1c(Br)c(OC)c2c(=O)cc(-c3ccc(C)cc3)oc2c1Br [3e, 6,8-Dibromo-5,7-dimethoxy-2-(p-tolyl)-4H-chromen-4-one] | 10.9 ± 0.007 µM | 13.3 ± 0.08 µM | 205 to 206 °C |  | 6.42 ± 0.79 µM | 6.96 ± 0.66 µM | 25.4 ± 0.04 µM | 9.45 ± 0.79 µM | 
COc1c(Br)c(OC)c2c(=O)cc(-c3ccccc3)oc2c1Br [3a, 6,8-Dibromo-5,7-dimethoxy-2-phenyl-4H-chromen-4-one] |  |  | 216 to 218 °C | 14.2 ± 0.005 µM | 16.2 ± 0.91 µM | 8.5 ± 0.82 µM |  | 12.4 ± 0.97 µM | IC50 (A549 cells): 12.4 ± 0.97 µM; IC50 (Vero cells): 16.2 ± 0.91 µM
COc1c(Br)c(O)c(C(=O)/C=C/c2ccc(Cl)cc2)c(OC)c1Br [2c, (E)-1-(3,5-Dibromo-2-hydroxy-4,6-dimethoxyphenyl)-3-(4-chlorophenyl)prop-2-en-1-one] |  | 28 ± 0.003 µM | 150 to 152 °C | 12.3 ± 0.003 µM | 9.68 ± 0.8 µM | 15.1 ± 0.91 µM | 18 ± 0.06 µM | 20.3 ± 1.01 µM | selectivity index (SI = IC50(α-glucosidase)/IC50(α-amylase)) [1]: 0.68
O=c1c(O)c(-c2ccc(O)c(O)c2)oc2cc(O)cc(O)c12 [Quercetin, reference compound] |  | 4.8 ± 0.01 µM |  |  |  |  |  |  | IC50 (A549 cells; Homo sapiens, A549): 35.4 ± 1.78 µM; IC50 (MCF-7 cells; Homo sapiens, MCF7): 35.4 ± 1.78 µM; IC50 (Vero cells; Chlorocebus sabaeus, Vero): 45.6 ± 1.8 µM
